# Key:
# [1] = system: differentiated L6-myotubes; assay: Glucose uptake screen (Biological example 1 of WO 2019/053427); type: cell-based; details: compound at 10 μM, activity relative to isoproterenol at 10 μM, read-out: Biological example 1 of WO 2019/053427 (GU)
# Summary of the method: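 Uptake was read out as ^3H-2-deoxyglucose (50 nM, 10 min) radioactivity in NaOH lysates. Beforehand, overnight-starved, differentiated L6 myotubes received compound at 1×10^−5 M with ICI-118551 present for 1 h 40 min, followed by fresh agonist for a further 20 min in glucose-free medium.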
# [2] = system: differentiated L6-myotubes; assay: cAMP production relative to isoprenaline (Biological example 2 of WO 2019/053427); type: cell-based; details: 0.25 h, compound at 10 μM, activity relative to isoproterenol at 10 μM
# Summary of the method: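 Values are cAMP levels relative to isoprenaline at equal concentration (final 1×10^−5 M for both). Stimulation lasted 15 min in differentiated L6 myotubes, using HBSS buffer (pH 7.4) containing 1 mM IBMX, 5 mM HEPES and 1% BSA.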
Compound,Emax at 10 µM [1] [%],Emax at 10 µM [2] [%]
"CO[C@H]1CC[C@H](C(C)(C)NC[C@H](O)c2cncc(F)c2)CC1 [Compound 240, (R)-1-(5-fluoro-3-pyridyl)-2-{1-methyl-1-[(1r,4R)-4-methoxycyclohexyl]ethyl-amino}-1-ethanol]",> 75,< 25
"CC12CC(C1)[C@H]([C@H](O)c1cccc(N)c1F)N2 [Compound 241, (R)-{(R)-1-methyl-2-azabicyclo[2.1.1]hex-3-yl}(3-amino-2-fluorophenyl)methanol]",> 75,< 25
"CC12CC(C1)[C@@H]([C@@H](O)c1cccc(N)c1F)N2 [Compound 242, (S)-{(S)-1-methyl-2-azabicyclo[2.1.1]hex-3-yl}(3-amino-2-fluorophenyl)methanol]",50 to 75,< 25
"CC12CC(C1)[C@H]([C@@H](O)c1cccc(N)c1F)N2 [Compound 243, (S)-{(R)-1-methyl-2-azabicyclo[2.1.1]hex-3-yl}(3-amino-2-fluorophenyl)methanol]",50 to 75,< 25
"CC12CC(C1)[C@@H]([C@H](O)c1cccc(N)c1F)N2 [Compound 244, (R)-{(S)-1-methyl-2-azabicyclo[2.1.1]hex-3-yl}(3-amino-2-fluorophenyl)methanol]",50 to 75,< 25
"CO[C@H]1CC[C@@H](CNC[C@H](O)c2cccc(F)c2)CC1 [Compound 245, (R)-1-(m-fluorophenyl)-2-({[(1s,4S)-4-methoxycyclohexyl]meth-yl}amino)-1-ethanol]",50 to 75,< 25
"CO[C@H]1CC[C@@H](CNC[C@H](O)c2cncc(F)c2)CC1 [Compound 246, (R)-1-(5-fluoro-3-pyridyl)-2-({[(1s,4S)-4-methoxycyclohexyl]meth-yl}amino)-1-ethanol]",50 to 75,< 25
"CO[C@H]1CC[C@@H](CC(C)(C)NC[C@H](O)c2cccc(F)c2)CC1 [Compound 247, (R)-2-{1,1-dimethyl-2-[(1s,4S)-4-methoxycyclohexyl]ethyl-amino}-1-(m-fluorophenyl)-1-ethanol]",> 75,< 25
"CO[C@H]1CC[C@@H](CC(C)(C)NC[C@H](O)c2cncc(F)c2)CC1 [Compound 248, (R)-2-{1,1-dimethyl-2-[(1s,4S)-4-methoxycyclohexyl]ethyl-amino}-1-(5-fluoro-3-pyridyl)-1-ethanol]",> 75,< 25
"CO[C@H]1CC[C@H](CC(C)(C)NC[C@H](O)c2cccc(F)c2)CC1 [Compound 249, (R)-2-{1,1-dimethyl-2-[(1r,4R)-4-methoxycyclohexyl]ethyl-amino}-1-(m-fluorophenyl)-1-ethanol]",> 75,< 25
"CO[C@H]1CC[C@H](CC(C)(C)NC[C@H](O)c2cncc(F)c2)CC1 [Compound 250, (R)-2-{1,1-dimethyl-2-[(1r,4R)-4-methoxycyclohexyl]ethyl-amino}-1-(5-fluoro-3-pyridyl)-1-ethanol]",50 to 75,< 25
"CO[C@H]1CC[C@@H](C(C)(C)NC[C@H](O)c2cccc(F)c2)CC1 [Compound 251, (R)-1-(m-fluroophenyl)-2-{1-methyl-1-[(1s,4S)-4-methoxycyclohexyl]ethyl-amino}-1-ethanol]",< 25,< 25
"CO[C@H]1CC[C@@H](C(C)(C)NC[C@H](O)c2cncc(F)c2)CC1 [Compound 252, (R)-1-(5-fluoro-3-pyridyl)-2-{1-methyl-1-[(1s,4S)-4-methoxycyclohexyl]ethyl-amino}-1-ethanol]",< 25,< 25
"CC12CCC([C@@H](O)c3ccncc3F)(CC1)N2 [Compound 253, (S)-(3-fluoro-4-pyridyl)(4-methyl-7-azabicyclo[2.2.1]hept-1-yl)methanol]",< 25,< 25
"CC12CCC([C@H](O)c3ccncc3F)(CC1)N2 [Compound 254, (R)-(3-fluoro-4-pyridyl)(4-methyl-7-azabicyclo[2.2.1]hept-1-yl)methanol]",< 25,< 25
"CO[C@@H]1CCC[C@H](C(C)(C)NC[C@H](O)c2cccc(F)c2)C1 [Compound 255, (R)-2-{1-[(1S,3R)-3-methoxycyclohexyl]-1-methylethylamino}-1-(m-fluorophenyl)-1-ethanol]",> 75,< 25
CO[C@H]1CCC[C@@H](C(C)(C)NC[C@H](O)c2cccc(F)c2)C1 [Compound 256],> 75,25 to 50
"CO[C@@H]1CCC[C@H](C(C)(C)NC[C@H](O)c2cncc(F)c2)C1 [Compound 257, (R)-2-{1-[(1S,3R)-3-methoxycyclohexyl]-1-methylethylamino}-1-(5-fluoro-3-pyridyl)-1-ethanol]",50 to 75,< 25

Compound,Emax at 10 µM [1] [%],Emax at 10 µM [2] [%]
"CO[C@H]1CC[C@@H](CCCNC[C@H](O)c2cccc(F)c2)CC1 [Compound 258, (R)-1-(m-fluorophenyl)-2-{3-[(1s,4R)-4-methoxycyclohexyl]propyl-amino}-1-ethanol]",> 75,50 to 75
"CO[C@H]1CC[C@H](CCCNC[C@H](O)c2cccc(F)c2)CC1 [Compound 259, (R)-1-(m-fluorophenyl)-2-{3-[(1r,4S)-4-methoxycyclohexyl]propyl-amino}-1-ethanol]",25 to 50,< 25
"CO[C@H]1CC[C@@H](CCCNC[C@H](O)c2cncc(F)c2)CC1 [Compound 260, (R)-1-(5-fluoro-3-pyridyl)-2-{3-[(1s,4R)-4-methoxycyclohexyl]propyl-amino}-1-ethanol]",> 75,< 25
"CO[C@H]1CC[C@H](CCCNC[C@H](O)c2cncc(F)c2)CC1 [Compound 261, (R)-1-(5-fluoro-3-pyridyl)-2-{3-[(1r,4S)-4-methoxycyclohexyl]propyl-amino}-1-ethanol]",< 25,< 25
"O[C@@H](CNC[C@H]1CC[C@@H](OCc2ccccc2)CC1)c1cccc(F)c1 [Compound 262, (R)-1-(m-fluorophenyl)-2-({[(1s,4S)-4-(benzyloxy)cyclohexyl]methyl}amino)-1-ethanol]",25 to 50,< 25
"O[C@@H](CNC[C@H]1CC[C@@H](OCc2ccccc2)CC1)c1cncc(F)c1 [Compound 263, (R)-1-(5-fluoro-3-pyridyl)-2-({[(1s,4S)-4-(benzyloxy)cyclohexyl]methyl}amino)-1-ethanol]",> 75,< 25
"CO[C@H]1CC[C@@H](CCC(C)(C)NC[C@H](O)c2cccc(F)c2)CC1 [Compound 264, (R)-2-{1,1-dimethyl-3-[(1s,R)-4-methoxycyclohexyl]propyl-amino}-1-(m-fluorophenyl)-1-ethanol]",> 75,25 to 50
"CO[C@H]1CC[C@H](CCC(C)(C)NC[C@H](O)c2cccc(F)c2)CC1 [Compound 265, (R)-2-{1,1-dimethyl-3-[(1r,4S)-4-methoxycyclohexyl]propyl-amino}-1-(m-fluorophenyl)-1-ethanol]",50 to 75,< 25
CO[C@H]1CC[C@@H](CCC(C)(C)NC[C@H](O)c2cncc(F)c2)CC1 [Compound 266],> 75,< 25
"CO[C@H]1CC[C@H](CCC(C)(C)NC[C@H](O)c2cncc(F)c2)CC1 [Compound 267, (R)-2-{1,1-dimethyl-3-[(1r,4S)-4-methoxycyclohexyl]propyl-amino}-1-(5-fluoro-3-pyrdiyl)-1-ethanol]",25 to 50,< 25
"O[C@@H](CNC[C@H]1CC[C@@H](O)CC1)c1cccc(F)c1 [Compound 268, (R)-1-(m-fluorophenyl)-2-({[(1s,4S)-4-hydroxycyclohexyl]meth-yl}amino)-1-ethanol]",25 to 50,< 25
"O[C@@H](CNC[C@H]1CC[C@@H](O)CC1)c1cncc(F)c1 [Compound 269, (R)-1-(5-fluoro-3-pyridyl)-2-({[(1s,4S)-4-hydroxycyclohexyl]meth-yl}amno)-1-ethanol]",25 to 50,< 25
"CO[C@H]1CCC[C@@H](C(C)(C)NC[C@H](O)c2cncc(F)c2)C1 [Compound 270, (R)-2-{1-[(1R,3S)-3-methoxycyclohexyl]-1-methylethylamino}-1-(5-fluoro-3-pyridyl)-1-ethanol]",> 75,50 to 75
"O[C@@H](CNC[C@H]1CC[C@H](OCc2ccccc2)CC1)c1cccc(F)c1 [Compound 271, (R)-1-(m-fluorophenyl)-2-({[(1r,4R)-4-(benzyloxy)cyclohexyl]methyl}amino)-1-ethanol]",25 to 50,< 25
"O[C@@H](CNC[C@H]1CC[C@H](O)CC1)c1cccc(F)c1 [Compound 272, (R)-1-(m-fluorophenyl)-2-({[(1r,4R)-4-hydroxycycloehxyl]meth-yl}amino)-1-ethanol]",25 to 50,< 25
"O[C@@H](CNC[C@H]1CC[C@H](OCc2ccccc2)CC1)c1cncc(F)c1 [Compound 273, (R)-1-(5-fluoro-3-pyrdiyl)-2-({[(1r,4R)-4-(benzyloxy)cyclohexyl]methyl}amino)-1-ethanol]",25 to 50,< 25
"O[C@@H](CNC[C@H]1CC[C@H](O)CC1)c1cncc(F)c1 [Compound 274, (R)-1-(5-fluoro-3-pyridyl)-2-({[(1r,4R)-4-hydroxycyclohexyl]meth-yl}amino)-1-ethanol]",< 25,< 25

# Source: patent publication US20260256751A1, “COMBINATION OF BETA-2-ADRENERGIC RECEPTOR AGONISTS AND GLP-1 RECEPTOR AGONISTS FOR USE IN TREATING HYPERGLYCAEMIA” (ATROGI AB, priority 2023, published 2026)
